Measured values taken from paper PMC4104761, “Identification of a novel lytic peptide for the treatment of solid tumours” (Genes & Cancer, 2014).

Assay: Liposome leakage assay (ANTS/DPX fluorescence)
Assay type: biochemical
Details: 25°C, pH 7.4, fluorescence at 510 nm, triplicate; for leakage of ANTS from liposomes: 0 to 90 µg/ml
Experimental: To assess the membranolytic effect of Cypep-1 on the integrity of phospholipid model membranes, liposome leakage assays monitored by fluorescence spectroscopy were performed on 200 nm liposomes as described earlier. […] (purchased from CPC Scientific, San Jose, CA) was used as control in the leakage assays (Peptide A).
Negatively charged PBPS: EYL (1:1 mixture) as well as neutral pure EYL vesicles were used, in which both liposome types encapsulated the fluorochrome ANTS (8 aminonaphtalene-1,3,6 trisulfonic acid) and its corresponding quencher DPX (p-xylene-bis[N-pyridinium bromide]). In principle, a disruption of the liposomes' bi-layer induces leakage of the fluorophore ANTS. This entails an increase in fluorescence at 510 nm. All fluorescence spectra were recorded at 25°C and pH 7.4 on a Cary Eclipse Fluorescence Spectrophotometer (Varian Optical Spectroscopy Instruments, Mulgrave, Victoria, Australia). The respective titrations with Cypep-1 and the control Peptide A were performed in concentrations ranging from 0 µg/ml to 90 µg/ ml (0 µM to 26 µM). The fluorescence was measured for each concentration point of the concentration series, and all measurements were performed in triplicate. At the end of each measurement, Triton X-100 was added to a final concentration of 2 mM, to obtain the maximum membrane leakage. The resulting maximum fluorescence at 510 nm is defined as 100%, i.e. complete liposome breakdown. The induced leakages of the fluorophore ANTS due to exposure to the peptides were then evaluated as a percentage of its complete release after Triton X-100 exposure. The initial fluorescence intensity of the respective liposome solutions was defined as 0% leakage.

YGRKKRRQRRRGKTLRVAKAIYKRYIE [Cypep-1]
leakage of ANTS from liposomes (200 nm EYL liposomes): significant leakage of ANTS | leakage of ANTS from liposomes (200 nm liposomes PBPS:EYL 1:1): significant leakage of ANTS | EC50 (ANTS/DPX leakage, 200 nm liposomes PBPS:EYL 1:1, read-out: S0.5, concentration necessary to achieve membrane disruption): 8.3 ± 0.5 µM
